# Measured values from patent US20110098332A1, “Insecticides for Increasing the Crop Yield” (BASF SE, priority 2007, published 2011).
# Legend:
# [1] = tested on: Spring wheat (cultivar Triso); test: Crop yield increase in spring wheat after seed treatment (field trial); assay type: in vivo; conditions: seed treatment 100 ml/100 kg seeds (Regent FS 500, 50 g per 100 kg seeds), harvest 130 days after planting
# Excerpt: (§1) The N-min analysis method used in the examples determines the content of mineral nitrogen compounds in the soil (0-90 cm depth) at the beginning of the vegetative period. For this purpose, samples are taken in a depth of 0 to 90 cm and mineral nitrogen compounds (ammonium compounds and nitrates) are extracted and analyzed. The method is described in R. Thun et al., “Die Untersuchung von Böden, Methodenbuch Bd. 1, 4th edition 1991, edition VDLUFA (Verband Deutscher Landwirtschaftlicher Untersuchungs- and Forschungsanstalten), Darmstadt, Germany.
# Spring wheat seeds (cultivar Triso) were treated with fipronil (used as commercially available product Regent FS 500; an FS formulation containing 500 g/l of active compound; 50 g per 100 kg seeds) in a HEGE 11 seed treatment apparatus. A part of the seeds remained untreated (control). Five days after the treatment, the seeds were planted near Gommersheim, Palatine, Germany, in a loamy sand with a pH of 6.7, and a tilling depth of 30 cm. Nitrogen content following N-min analysis was 52 kg N per ha in 0 to 90 cm depth. 400 seeds per m^2 were sown in 1.86 m by 5.5 m plots. Row spacing was 13 cm and seeding depth 3 cm. The treatments were supplied with either standard amount of nitrogen (140 kg N/ha) or reduced amount of nitrogen (30 kg N/ha). 130 days after planting, the wheat grains were harvested and weighed.
# [2] = tested on: Winter wheat (cultivar Türkis); test: Crop yield in winter wheat after seed treatment (field trial); assay type: in vivo; conditions: seed treatment 50 ml/100 kg seeds (Regent FS 500, 25 g per 100 kg seeds), harvest 269 days after planting
# Excerpt: as §1
# Winter wheat seeds (cultivar Türkis) were treated with fipronil (used as commercially available product Regent FS 500; an FS formulation containing 500 g/l of active ccompound; 25 g per 100 kg seeds) in a HEGE 11 seed treatment apparatus. A part of the seeds remained untreated (control). Two days after the treatment, the seeds were planted in Böhl, Palatine, Germany, in a loamy sand with a pH of 6.7, and a tilling depth of 30 cm. Nitrogen content following N-min analysis was 26 kg N per ha in 0 to 90 cm depth. 400 seeds per m^2 were sown in 1.86 m by 5.5 m plots. Row spacing was 13 cm and seeding depth 3 cm. The treatments were supplied with either standard amount of nitrogen (180 kg N/ha) or reduced amount of nitrogen (50 kg N/ha). 269 days after planting, the wheat grains were harvested and weighed.
smiles,measurement,setting,value
N#Cc1nn(-c2c(Cl)cc(C(F)(F)F)cc2Cl)c(N)c1[S+]([O-])C(F)(F)F (stereo not shown) [fipronil],Crop yield,"[1]; reduced nitrogen (30 kg N/ha), control 47.0",51.4 dt/ha
same,Crop yield,"[1]; standard nitrogen (140 kg N/ha), control 62.8",63.2 dt/ha
same,Crop yield,"[2]; reduced nitrogen (50 kg N/ha), control 82.6",86.1 dt/ha
same,Crop yield,"[2]; standard nitrogen (180 kg N/ha), control 87.4",87.4 dt/ha
